One assay relates to Lox-IMVI melanoma cell line. Kind of assay: Lox-IMVI anti-proliferative assay (growth inhibition, Cell Titer-Glo). The assay is classed as cell-based, human. The note with it: Homo sapiens; IC50 activity level in the cell-based Lox-IMVI anti-proliferative assay; read-out: Activity. The method, boiled down:
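Lox-IMVI cells in RPMI+10% FBS exposed 72 h at 37 °C to 10-point, 3-fold dilutions (0.5 nM–10 μM; 0.2% DMSO final), in duplicate. Viability by Cell Titer-Glo luminescence, with a t0 cell-number reading; data as % of DMSO control; IC50 from a four-parameter logistic fit.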
For `Cc1c(Cl)ccc(F)c1Nc1nc2cnc(NC3CCOCC3)nc2n1[C@H]1CC[C@@H](C(N)=O)CC1` [Example 79, (1s,4s)-4-(8-(3-chloro-6-fluoro-2-methylphenylamino)-2-(tetrahydro-2H-pyran-4-ylamino)-9H-purin-9-yl)cyclohexanecarboxamide], the IC50 is over 1000 nM.
Still for that read-out and setting: for `NC(=O)[C@H]1CC[C@@H](n2c(Nc3c(F)cccc3F)nc3cnc(N[C@@H]4CCC[C@H](O)C4)nc32)CC1` [Example 348, (1S,4s)-4-(8-(2,6-difluorophenylamino)-2-((1R,3S)-3-hydroxycyclohexylamino)-9H-purin-9-yl)cyclohexanecarboxamide] the value was over 1000 nM; for `C[C@@H](CO)Nc1ncc2nc(Nc3c(F)cc(C#N)cc3Cl)n([C@H]3CC[C@@H](C(N)=O)CC3)c2n1` [Example 395, (1R,4s)-4-(8-(2-chloro-4-cyano-6-fluorophenylamino)-2-((S)-1-hydroxypropan-2-ylamino)-9H-purin-9-yl)cyclohexanecarboxamide], over 1000 nM; for `NC(=O)[C@H]1CC[C@@H](n2c(Nc3c(F)cc(Cl)cc3F)nc3cnc(N[C@H]4C[C@H](O)C4)nc32)CC1` [Example 283, (1s,4s)-4-(8-(4-chloro-2,6-difluorophenylamino)-2-((1r,3r)-3-hydroxycyclobutylamino)-9H-purin-9-yl)cyclohexanecarboxamide], over 1000 nM.
Still for that read-out and setting: for `NC(=O)[C@H]1CC[C@@H](n2c(Nc3c(Cl)cc(Cl)cc3Cl)nc3cnc(NCC(F)(F)F)nc32)CC1` [Example 109, (1s,4s)-4-(8-(2,4,6-trichlorophenylamino)-2-(2,2,2-trifluoroethylamino)-9H-purin-9-yl)cyclohexanecarboxamide] the value was over 1000 nM; for `NC(=O)[C@H]1CC[C@@H](n2c(Nc3c(F)cc(C(F)(F)F)cc3Cl)nc3cnc(NC4CCOCC4)nc32)CC1` [Example 398, (1s,4s)-4-(8-(2-chloro-6-fluoro-4-(trifluoromethyl)phenylamino)-2-(tetrahydro-2H-pyran-4-ylamino)-9H-purin-9-yl)cyclohexanecarboxamide], 500 to 1000 nM.
On the same count and under the same terms, for `NC(=O)[C@H]1CC[C@@H](n2c(Nc3cc(F)c(F)cc3Cl)nc3cnc(NC4CCOCC4)nc32)CC1` [Example 100, (1s,4s)-4-(8-(2-chloro-4,5-difluorophenylamino)-2-(tetrahydro-2H-pyran-4-ylamino)-9H-purin-9-yl)cyclohexanecarboxamide] the value was over 1000 nM.
Regarding `NC(=O)[C@H]1CC[C@@H](n2c(Nc3c(F)cc(F)cc3Cl)nc3cnc(NC4CCCC4)nc32)CC1` [Example 119, (1s,4s)-4-(8-(2-chloro-4,6-difluorophenylamino)-2-(cyclopentylamino)-9H-purin-9-yl)cyclohexanecarboxamide], the IC50 was 250 to 500 nM.
Consider `NC(=O)[C@H]1CC[C@@H](n2c(Nc3c(F)cc(Cl)cc3Cl)nc3cnc(N[C@@H]4CCOC4)nc32)CC1` [Example 223, (1S,4s)-4-(8-(2,4-dichloro-6-fluorophenylamino)-2-((R)-tetrahydrofuran-3-ylamino)-9H-purin-9-yl)cyclohexanecarboxamide], for which the IC50 was 250 to 500 nM.
On the same count and under the same terms, for `NC(=O)[C@H]1CC[C@@H](n2c(Nc3ccc(F)c(F)c3F)nc3cnc(N[C@@H]4CCC[C@H](O)C4)nc32)CC1` [Example 364, (1S,4s)-4-(2-((1R,3S)-3-hydroxycyclohexylamino)-8-(2,3,4-trifluorophenylamino)-9H-purin-9-yl)cyclohexanecarboxamide] the value was over 1000 nM.
On to `NC(=O)[C@H]1CC[C@@H](n2c(Nc3ccc(Cl)c(F)c3F)nc3cnc(N[C@H]4C[C@H](O)C4)nc32)CC1` [Example 285, (1s,4s)-4-(8-(4-chloro-2,3-difluorophenylamino)-2-((1R,3r)-3-hydroxycyclobutylamino)-9H-purin-9-yl)cyclohexanecarboxamide], for which the IC50 was over 1000 nM.
As for `NC(=O)[C@H]1CC[C@@H](n2c(Nc3c(Cl)cc(OC(F)(F)F)cc3Cl)nc3cnc(NC4CCOCC4)nc32)CC1` [Example 365, (1s,4s)-4-(8-(2,6-dichloro-4-(trifluoromethoxy)phenylamino)-2-(tetrahydro-2H-pyran-4-ylamino)-9H-purin-9-yl)cyclohexanecarboxamide], the IC50 is under 250 nM.
The same measure, in the same setting: for `NC(=O)[C@H]1CC[C@@H](n2c(Nc3c(F)cc(F)cc3F)nc3cnc(N[C@H]4CCOC[C@H]4F)nc32)CC1` [Example 306, (1R,4s)-4-(2-((3S,4S)-3-fluorotetrahydro-2H-pyran-4-ylamino)-8-(2,4,6-trifluorophenylamino)-9H-purin-9-yl)cyclohexanecarboxamide] the value was 250 to 500 nM; for `NC(=O)[C@H]1CC[C@@H](n2c(Nc3c(F)cc(F)cc3F)nc3cnc(N[C@@H]4CC[C@@H](O)C4)nc32)CC1` [Example 207, (1S,4s)-4-(2-((1R,3R)-3-hydroxycyclopentylamino)-8-(2,4,6-trifluorophenylamino)-9H-purin-9-yl)cyclohexanecarboxamide], over 1000 nM.

Still in this assay, the particulars now being: Homo sapiens; Lox-IMVI anti-proliferative assay, IC50 activity level; read-out: Activity.
Regarding `C[C@]1(C(N)=O)CC[C@@H](n2c(Nc3c(Cl)cc(OC(F)(F)F)cc3Cl)nc3cnc(NC4CCC4)nc32)CC1` [Example 598, (1s,4s)-4-(2-(cyclobutylamino)-8-(2,6-dichloro-4-(trifluoromethoxy)phenylamino)-9H-purin-9-yl)-1-methylcyclohexanecarboxamide], the IC50 is over 1000 nM.
Still for that read-out and setting: for `NC(=O)[C@H]1CC[C@@H](n2c(Nc3c(Cl)cc(F)cc3Cl)nc3cnc(N[C@@H]4CCCC[C@H]4O)nc32)CC1` [Example 469, (1S,4s)-4-(8-(2,6-dichloro-4-fluorophenylamino)-2-((1R,2R)-2-hydroxycyclohexylamino)-9H-purin-9-yl)cyclohexanecarboxamide] the value was over 1000 nM.
On to `C[C@@H]1COCC[C@@H]1Nc1ncc2nc(Nc3c(F)cc(Cl)cc3Cl)n([C@H]3CC[C@@H](C(N)=O)CC3)c2n1` [Example 506, (1R,4s)-4-(8-(2,4-dichloro-6-fluorophenylamino)-2-((3S,4S)-3-methyltetrahydro-2H-pyran-4-ylamino)-9H-purin-9-yl)cyclohexanecarboxamide], for which the IC50 lay within 250 to 500 nM.
On to `C[C@]1(O)CCC[C@@H](Nc2ncc3nc(Nc4ccc(F)cc4Cl)n([C@H]4CC[C@@H](C(N)=O)CC4)c3n2)C1` [Example 429, (1S,4s)-4-(8-(2-chloro-4-fluorophenylamino)-2-((1R,3S)-3-hydroxy-3-methylcyclohexylamino)-9H-purin-9-yl)cyclohexanecarboxamide], for which the IC50 was over 1000 nM.

The same assay, now with this note: Homo sapiens; Lox-IMVI anti-proliferative assay, cell-based; read-out: Activity (IC50 activity level).
For the compound `N#Cc1cc(F)c(Nc2nc3cnc(N[C@@H]4CCOC[C@H]4F)nc3n2[C@H]2CC[C@@H](C(N)=O)CC2)c(F)c1` [Example 801, (1S,4s)-4-(8-(4-cyano-2,6-difluorophenylamino)-2-((3S,4R)-3-fluorotetrahydro-2H-pyran-4-ylamino)-9H-purin-9-yl)cyclohexanecarboxamide], the IC50 was under 250 nM.

Still in this assay, the particulars now being: Homo sapiens; Lox-IMVI melanoma cell line, anti-proliferative assay; read-out: Activity (IC50 activity level).
With `CC(C)N1CCC[C@@H](Nc2ncc3nc(Nc4c(Cl)cc(Cl)cc4Cl)n([C@H]4CC[C@@H](C(N)=O)CC4)c3n2)C1` [Example 738, (1S,4s)-4-(2-((R)-1-isopropylpiperidin-3-ylamino)-8-(2,4,6-trichlorophenylamino)-9H-purin-9-yl)cyclohexanecarboxamide], the IC50 was over 1000 nM.

Still in this assay, the particulars now being: Lox-IMVI melanoma cell line, anti-proliferative assay; read-out: Activity (IC50 activity level).
Consider “(R)-isopropyl 3-(9-((1s,4S)-4- carbamoylcyclohexyl)-8-(2-chloro-4- cyano-6-fluorophenylamino)-9H-purin- 2-ylamino)piperidine-1-carboxylate [Example 776]”, for which the IC50 was 500 to 1000 nM.

For the origin of these results see patent publication US11590139B2, “Substituted aminopurine compounds, compositions thereof, and methods of treatment therewith” (Signal Pharmaceuticals, LLC, priority 2014, dated 2023).
